Patent publication US20140357512A1, “HISTONE DEACETYLASE (HDAC) BIOMARKERS IN MULTIPLE MYELOMA” (priority 2013, published 2014)

System: human myeloma cell line MM.1S
Assay: SILAC acetylated-lysine peptide profiling, HDAC inhibitor vs DMSO (light/heavy ratio)
Format: cell-based
Source text: An embodiment of the invention comprises utilizing the SILAC method in order to quantitate changes in protein expression between two or more populations of cells. The SILAC method is a technique based on mass spectrometry that detects differences in protein abundance among samples using non-radioactive isotopic labeling. The SILAC method is known in the art, and described in detail in Ong et al., “Stable Isotope Labeling by Amino Acids in Cell Culture, SILAC, as a Simple and Accurate Approach to Expression Proteomics”, Molecular & Cellular Proteomics, vol. 1, pp. 376-386 (2002), which is incorporated herein by reference in its entirety.
Briefly, the SILAC method involves growing two populations of cells in cell culture. The first population of cells is grown in growth media containing normal amino acids (“normal media”). The second population of cells is grown in media lacking a standard essential amino acid (such as lysine), but is then supplemented with a non-radioactive, isotopically labeled form of that essential amino acid (such as lysine labeled with ^13C atoms, rather than normal ^12C atoms), which is called “heavy media”. When the two populations of cells are each growing in the medium, they incorporate the amino acids into all of their proteins. The growth of cells maintained in the heavy media is no different from that in normal media. All peptides containing the heavy amino acids are heavier than their normal counterparts. The cells from each of the two populations of cells are lysed. The lysates from each of the two cell populations are then combined. The combined cell lysates are then analyzed by mass spectrometry. Pairs of chemically identical peptides of different stable isotope composition can be differentiated in a mass spectrometer due to their difference in mass. The ratio of peak intensities in the mass spectrum for such peptide pairs reflects the abundance ratio for the two proteins.
This example describes SILAC studies that were performed to compare the effects of three different HDAC inhibitors (Compound A, Compound B, and tubastatin A) to a control on a human multiple myeloma cell line. The HDAC inhibitors were also compared amongst themselves to determine differences in their effects.
A human myeloma cell line MM.1S was grown using either ^12C (light) or ^13C (heavy) lysine containing culture medium. The “heavy” cells were treated with DMSO as the control, and the “light” cells were treated with a single HDAC inhibitor at 37° C. for 6 hours. The heavy and light cells were lysed, and the lysates were mixed in 1:1 ratio and digested with the protease trypsin. The acetylated lysine containing peptides (due to the action of the HDAC inhibitor) in the digested peptide pool were captured by a non-specific anti-acetylated lysine antibody cocktail (the antibodies identify both light and heavy acetylated peptides), and subjected to mass spectrometry analysis in order to identify thousands of individual peptides.
Thousands of peptides were identified in pairs (^12C and ^13C) due to their known mass differences. The amino acid sequence and quantitative ratio (Light/Heavy) of a given peptide in two differentially treated cell lysates were then determined and annotated with their possible protein (gene) sources.
As stated above, three HDAC inhibitors (Compound A, Compound B, and Tubastatin A) were used. Thus, the SILAC method was performed three times, with a different HDAC inhibitor compared to a control each time. Accordingly, there are three pairs of quantitative data in the table below, i.e., Compound A:DMSO, Compound B:DMSO, and Tubastatin A:DMSO. A cut-off of 1.30 fold of change (increase or decrease) was then used to determine “changed” or “+” in the table, and any peptides with a fold of change less than 1.3 fold were determined to be “unchanged” or “0” in the table. Those peptides that were not identified were marked as “NA” in the table. […]

SMILES: CN1CCc2c(c3ccccc3n2Cc2ccc(C(=O)NO)cc2)C1 [Tub A]
- L/H ratio of acetylated peptide ASGLAAGK(ac)GVIVAK (SEQ ID NO: 37) (GART [156], log 2 scale, drug vs DMSO): 0.46
- light to heavy ratio (L/H ratio) of acetylated peptide, log 2 scale (GDASK(ac)EDIDTAMK (SEQ ID NO: 161), Isoform 1 of Hydroxyacyl-coenzyme A dehydrogenase mitochondrial [241], HADH): 0.47
- light to heavy ratio (L/H ratio) of acetylated peptide, log 2 scale (GDGTGGK(ac)SIYGER (SEQ ID NO: 196), Peptidyl-prolyl cis-trans isomerase B [116], PPIB): −0.54
- light to heavy ratio (L/H ratio) of acetylated peptide, log 2 scale (GFAFVTFDDHDSVDK(ac)IVIQK (SEQ ID NO: 165), Isoform A1-B of Heterogeneous nuclear ribonucleoprotein A1 [161], HNRNPA1): −0.53
- light to heavy ratio (L/H ratio) of acetylated peptide, log 2 scale (GFGGK(ac)YGVER (SEQ ID NO: 162), Hematopoietic lineage cell-specific protein [123], HCLS1): 0.77
- light to heavy ratio (L/H ratio) of acetylated peptide, log 2 scale (GHLENNPALEK(ac)LLPHIR (SEQ ID NO: 208), 60S acidic ribosomal protein P0 [77], RPLP0): −0.48
- light to heavy ratio (L/H ratio) of acetylated peptide, log 2 scale (GIVK(ac)DIIHDPGR (SEQ ID NO: 207), 60S ribosomal protein L8 [46], RPL8): −0.54
- light to heavy ratio (L/H ratio) of acetylated peptide, log 2 scale (GLFIIDDK(ac)GILR (SEQ ID NO: 197), Peroxiredoxin-1 [136], PRDX1): −0.77
- light to heavy ratio (L/H ratio) of acetylated peptide, log 2 scale (GLSSLLYGSIPK(ac)AAVR (SEQ ID NO: 220), Tricarboxylate transport protein mitochondrial [97], SLC25A1): 0.44
- L/H ratio of acetylated peptide LVK(ac)VWNLANCK (SEQ ID NO: 39) (GNB2L1 [175], log 2 scale, drug vs DMSO): −0.70
- L/H ratio of acetylated peptide IIVDELK(ac)QEVISTSSK (SEQ ID NO: 38) (GNB2L1 [271], log 2 scale, drug vs DMSO): −0.62
- light to heavy ratio (L/H ratio) of acetylated peptide, log 2 scale (GPIGSIGPK(ac)GIPGEDGYR (SEQ ID NO: 146), Isoform 1 of Collagen alpha-3(VI) chain [2052], COL6A3): −0.80
- L/H ratio of acetylated peptide (GSK(ac)K(ac)AVTK (SEQ ID NO: 490), Histone H2B type 2-E [16:17], HIST2H2BE): 0.00 log 2
- L/H ratio of acetylated peptide (ac)AHYNFK(ac)K (SEQ ID NO: 40) (GTPBP4 [7], log 2 scale, drug vs DMSO): −0.38
- light to heavy ratio (L/H ratio) of acetylated peptide, log 2 scale (GTVRPANDFNPDADAK(ac)ALR (SEQ ID NO: 130), Annexin A6 [370], ANXA6): 0.44
- L/H ratio of acetylated peptide (GYGFGLIK(ac)LDLK (SEQ ID NO: 465), Voltage-dependent anion-selective channel protein 1 [28], VDAC1): 0.00 log 2
- light to heavy ratio (L/H ratio) of acetylated peptide, log 2 scale (GYLTK(ac)EDLR (SEQ ID NO: 216), Protein S100-A10 [28], S100A10): 1.00
- light to heavy ratio (L/H ratio) of acetylated peptide (ac)ACGLVASNLNLK(ac)PGECLR (SEQ ID NO: 575) (Galectin-1 [13], gene LGALS1, inhibitor:DMSO): 0.00 log 2
- light to heavy ratio (L/H ratio) of acetylated peptide ISGASEK(ac)DIVHSGLAYTMER (SEQ ID NO: 543) (Glutamate dehydrogenase 1 mitochondrial [503], gene GLUD1, inhibitor:DMSO): 0.00 log 2
- light to heavy ratio (L/H ratio) of acetylated peptide VVK(ac)QASEGPLK (SEQ ID NO: 597) (Glyceraldehyde-3-phosphate dehydrogenase [263], gene GAPDH, inhibitor:DMSO): 0.00 log 2
- light to heavy ratio (L/H ratio), log 2 scale, acetylated peptide LLLLGAGESGK(ac)STIVK (SEQ ID NO: 769) (Guanine nucleotide-binding protein G(olf) subunit alpha [55], gene GNAL, drug:DMSO): 0.00
- L/H ratio of acetylated peptide AGGK(ac)AGK(ac)DSGK (SEQ ID NO: 15) (H2AFV [5:8], log 2 scale, drug vs DMSO): 0.47
- L/H ratio of acetylated peptide GQQQVFK(ac)GLNDK (SEQ ID NO: 41) (HADHA [406], log 2 scale, drug vs DMSO): 0.46
- L/H ratio of acetylated peptide EPVAVLK(ac)ANR (SEQ ID NO: 9) (HEXB [161], log 2 scale, drug vs DMSO): −0.58
- light to heavy ratio (L/H ratio) of acetylated peptide, log 2 scale (HIK(ac)ENDYYTPTGEFR (SEQ ID NO: 227), Dolichyl-diphosphooligosaccharide--protein glycosyltransferase subunit STT3A [613], STT3A): −0.44
- L/H ratio of acetylated peptide PDPAK(ac)SAPAPK(ac)K (SEQ ID NO: 16) (HIST1H2BO [6:12], log 2 scale, drug vs DMSO): 0.47
- light to heavy ratio (L/H ratio) of acetylated peptide, log 2 scale (HK(ac)DIDILIVR (SEQ ID NO: 178), Isocitrate dehydrogenase [NAD] subunit gamma mitochondrial [159], IDH3G): −1.00
- light to heavy ratio (L/H ratio) of acetylated peptide SLNLK(ac)HIK (SEQ ID NO: 607) (HLA-B associated transcript 1 [188], gene SNORD84, DDX39B, inhibitor:DMSO): 0.00 log 2
- L/H ratio of acetylated peptide K(ac)HPDSSVNFAEFSK (SEQ ID NO: 42) (HMGB2 [30], log 2 scale, drug vs DMSO): −0.48
- L/H ratio of acetylated peptide RGEEGHDPK(ac)EPEQLR (SEQ ID NO: 43) (HNRNPA3 [29], log 2 scale, drug vs DMSO): −0.45
- L/H ratio of acetylated peptide AFITNIPFDVK(ac)WQSLK (SEQ ID NO: 44) (HNRNPM [83], log 2 scale, drug vs DMSO): −0.48
- L/H ratio of acetylated peptide AAEVLNK(ac)HSLSGRPLK (SEQ ID NO: 3) (HNRNPM [134], log 2 scale, drug vs DMSO): −0.87
- L/H ratio of acetylated peptide VK(ac)VLFVR (SEQ ID NO: 45) (HNRNPR [341], log 2 scale, drug vs DMSO): −0.77
- L/H ratio of acetylated peptide GYFEYIEENK(ac)YSR (SEQ ID NO: 46) (HNRNPU [246], log 2 scale, drug vs DMSO): −0.60
- L/H ratio of acetylated peptide TTWVTK(ac)HAAENPGK (SEQ ID NO: 47) (HNRNPU [497], log 2 scale, drug vs DMSO): −0.56
- L/H ratio of acetylated peptide NK(ac)EIFLR (SEQ ID NO: 52) (HSP90B1 [97], log 2 scale, drug vs DMSO): −1.00
- L/H ratio of acetylated peptide […](ac)IR (SEQ ID NO: 49) (HSP90B1 [114], log 2 scale, drug vs DMSO): −0.53
- L/H ratio of acetylated peptide EELVK(ac)NLGTIAK (SEQ ID NO: 48) (HSP90B1 [161], log 2 scale, drug vs DMSO): −0.60
- L/H ratio of acetylated peptide ETLQQHK(ac)LLK (SEQ ID NO: 50) (HSP90B1 [455], log 2 scale, drug vs DMSO): −0.74
- L/H ratio of acetylated peptide IADDK(ac)YNDTFWK (SEQ ID NO: 51) (HSP90B1 [479], log 2 scale, drug vs DMSO): −0.78
- L/H ratio of acetylated peptide NQLTSNPENTVFDAK(ac)R (SEQ ID NO: 54) (HSPA5 [96], log 2 scale, drug vs DMSO): −0.74
- L/H ratio of acetylated peptide […](ac)R (SEQ ID NO: 53) (HSPA5 [213], log 2 scale, drug vs DMSO): −0.54
- L/H ratio of acetylated peptide […](ac)R (SEQ ID NO: 55) (HSPA8 [71], log 2 scale, drug vs DMSO): −0.48
- light to heavy ratio (L/H ratio) of acetylated peptide NQVALNPQNTVFDAK(ac)R (SEQ ID NO: 267) (Heat shock 70 kDa protein 1A/1B [71], HSPA1B, HSPA1A, drug:DMSO): 0.59 log 2
